Activity calls are given as the source filed them. The rule behind the calls is not given here.
Legend:
[1] = Metabolic stability in human plasma assessed as half life measured upto 120 mins by LC-MS/MS analysis; assay type: ADME, cell-free
[2] = Metabolic stability in human plasma measured upto 120 mins by LC-MS/MS analysis; assay type: ADME, cell-free; conditions: 2 h
[3] = Metabolic stability in human plasma after 15 mins by LC-MS/MS analysis; assay type: ADME, cell-free; conditions: 0.25 h, BLD = below limit of detection
[4] = Tmax in Sprague-Dawley rat at 10 mg/kg, po measured up to 24 hrs by LC-MS analysis; assay type: ADME, organism-based; conditions: in vivo
[5] = Tmax in Sprague-Dawley rat at 3 mg/kg, iv measured up to 24 hrs by LC-MS analysis; assay type: ADME, organism-based; conditions: in vivo
[6] = Toxicity in BALB/c mouse assessed as clonic convulsion at 1 g/kg, IG administered 3 times per day and measured for 14 days; conditions: in vivo, po, 1000 mg/kg, 336 h, time 14 day
[7] = Selectivity index, ratio of CC50 for MDCK cells to EC50 for antiviral activity against Influenza A virus H1N1 (A/Puerto Rico/8/34) infected in MDCK cells; assay type: toxicity, cell-based; conditions: dog, read-out: Ratio CC50/EC50
[8] = Metabolic stability in mouse liver microsomes assessed as half life preincubated for 5 mins followed by NADPH addition and measured upto 45 mins by LC-MS analysis; assay type: ADME, Microsome; conditions: time < 50 min
Influenza A virus [9] = assay: Antiviral activity against Influenza A virus H1N1 (A/Puerto Rico/8/34) infected in MDCK cells assessed as reduction in nucleocapsid protein mRNA level by qRT-PCR analysis; assay type: functional, organism-based; conditions: dose 2-31.3 nM
Influenza A virus [10] = assay: Antiviral activity against Influenza A virus H1N1 (A/Puerto Rico/8/34) infected in MDCK cells assessed as reduction in NP viral RNA level at 1 uM treated at 4 hrs post infection by qRT-PCR analysis; assay type: functional, organism-based
[11] = Toxicity in BALB/c mouse assessed as ruffled fur at 1 g/kg, IG administered 3 times per day and measured for 14 days; conditions: in vivo, po, 1000 mg/kg, 336 h, time 14 day
Influenza A virus [12] = assay: Antiviral activity against Influenza A virus H1N1 (A/Puerto Rico/8/34) infected in MDCK cells assessed as reduction in nucleocapsid protein level by Western blot analysis; assay type: functional, organism-based; conditions: dose 2-125 nM
[13] = Toxicity in BALB/c mouse assessed as lethargy at 1 g/kg, IG administered 3 times per day and measured for 14 days; conditions: in vivo, po, 1000 mg/kg, 336 h, time 14 day
[14] = Metabolic stability in dog liver microsomes assessed as half life preincubated for 5 mins followed by NADPH addition and measured upto 45 mins by LC-MS analysis; assay type: ADME, Canis lupus familiaris, Microsome; conditions: time < 50 min
[15] = Metabolic stability in dog liver microsomes assessed as hepatic clearance preincubated for 5 mins followed by NADPH addition and measured upto 45 mins by LC-MS analysis; assay type: ADME, Canis lupus familiaris, Microsome; conditions: time < 50 min
Influenza A virus [16] = assay: Antiviral activity against Influenza A virus H1N1 (A/Puerto Rico/8/34) infected in BALB/c mouse at 100 mg/kg/day, po administered twice daily for 7 days and measured after 14 days; assay type: functional; conditions: time 14 day
[17] = Oral bioavailability in Sprague-Dawley rat at 10 mg/kg measured up to 24 hrs by LC-MS analysis; assay type: ADME, organism-based; conditions: in vivo
[18] = Toxicity in BALB/c mouse assessed as body weight loss at 1 g/kg, IG administered 3 times per day; conditions: in vivo, po, 1000 mg/kg
[19] = Metabolic stability in mouse liver microsomes assessed as intrinsic clearance preincubated for 5 mins followed by NADPH addition and measured upto 45 mins by LC-MS analysis; assay type: ADME, Microsome; conditions: time < 50 min, read-out: CLH
[20] = Cmax in Sprague-Dawley rat at 3 mg/kg, iv measured up to 24 hrs by LC-MS analysis; assay type: ADME, organism-based; conditions: in vivo
Influenza B virus [21] = assay: Antiviral activity against influenza B virus Victoria/2/87 infected in MDCK cells; assay type: functional, organism-based; conditions: Victoria/2/87, MDCK
[22] = Metabolic stability in dog liver microsomes assessed as hepatic extraction ratio preincubated for 5 mins followed by NADPH addition and measured upto 45 mins by LC-MS analysis; assay type: ADME, Canis lupus familiaris, Microsome; conditions: time < 50 min
[23] = Metabolic stability in human liver microsomes assessed as half life preincubated for 5 mins followed by NADPH addition and measured upto 45 mins by LC-MS analysis; assay type: ADME, Microsome; conditions: time < 50 min
[24] = AUC(0 to infinity) in Sprague-Dawley rat at 10 mg/kg, po measured up to 24 hrs by LC-MS analysis; assay type: ADME, organism-based; conditions: in vivo
[25] = Metabolic stability in human liver microsomes assessed as hepatic clearance preincubated for 5 mins followed by NADPH addition and measured upto 45 mins by LC-MS analysis; assay type: ADME, Microsome; conditions: time < 50 min
[26] = Toxicity in BALB/c mouse assessed as body weight loss at 1 g/kg, IG administered 3 times per day and measured on day 4 to 9; conditions: in vivo, po, 1000 mg/kg, time 4-9 day
[27] = Half life in Sprague-Dawley rat at 3 mg/kg, iv measured up to 24 hrs by LC-MS analysis; assay type: ADME, organism-based; conditions: in vivo
[28] = Metabolic stability in human plasma assessed as remaining compound measured upto 120 mins by LC-MS/MS analysis; assay type: ADME, cell-free; conditions: read-out: Stability
Influenza A virus [29] = assay: Inhibition of Influenza A virus RdRp activity assessed as reduction in Fluc/Rluc ratio; conditions: dose 0.5-50 µM
Influenza A virus [30] = assay: Antiviral activity against Influenza A virus H1N1 (A/Puerto Rico/8/34) infected in MDCK cells assessed as reduction in viral proliferation at 20 nM pre-infected with virus for 1 hr followed by compound addition and measured after 48 hrs by crystal violet staining based plaque formation assay; assay type: functional, organism-based
Influenza A virus [31] = assay: Antiviral activity against Influenza A virus H1N1 (A/Puerto Rico/8/34) infected in MDCK cells assessed as reduction in virus-induced cytopathic effect incubated for 48 hrs by CCK8 assay; assay type: functional, organism-based
[32] = AUC(0 to t) in Sprague-Dawley rat at 3 mg/kg, iv measured up to 24 hrs by LC-MS analysis; assay type: ADME, organism-based; conditions: in vivo
Influenza A virus [33] = assay: Antiviral activity against Influenza A virus H1N1 (A/Puerto Rico/8/34) infected in MDCK cells assessed as reduction in NP protein level at 1 uM in presence of 125 uM rNTP by Western blot analysis; assay type: functional, organism-based
Influenza A virus [34] = assay: Antiviral activity against Influenza A virus H1N1 (A/Puerto Rico/8/34) infected in MDCK cells assessed as reduction in NP protein level at 1 uM in presence of rUTP by Western blot analysis; assay type: functional, organism-based
[35] = Metabolic stability in human liver microsomes assessed as intrinsic clearance preincubated for 5 mins followed by NADPH addition and measured upto 45 mins by LC-MS analysis; assay type: ADME, Microsome; conditions: time < 50 min, read-out: CLH
[36] = Metabolic stability in human liver microsomes assessed as hepatic extraction ratio preincubated for 5 mins followed by NADPH addition and measured upto 45 mins by LC-MS analysis; assay type: ADME, Microsome; conditions: time < 50 min
[37] = Metabolic stability in mouse liver microsomes assessed as hepatic clearance preincubated for 5 mins followed by NADPH addition and measured upto 45 mins by LC-MS analysis; assay type: ADME, Microsome; conditions: time < 50 min
[38] = Metabolic stability in dog liver microsomes assessed as intrinsic clearance preincubated for 5 mins followed by NADPH addition and measured upto 45 mins by LC-MS analysis; assay type: ADME, Canis lupus familiaris, Microsome; conditions: time < 50 min, read-out: CLH
Influenza A virus [39] = assay: Antiviral activity against Influenza A virus H1N1 (A/Puerto Rico/8/34) infected in MDCK cells assessed as reduction in NP protein level at 1 uM in presence of rCTP by Western blot analysis; assay type: functional, organism-based
[40] = Toxicity in BALB/c mouse assessed as anorexia at 1 g/kg, IG administered 3 times per day and measured for 14 days; conditions: in vivo, po, 1000 mg/kg, 336 h, time 14 day
[41] = AUC(0 to infinity) in Sprague-Dawley rat at 3 mg/kg, iv measured up to 24 hrs by LC-MS analysis; assay type: ADME, organism-based; conditions: Sprague-Dawley, in vivo
Influenza A virus [42] = assay: Antiviral activity against Influenza A virus H1N1 (A/Puerto Rico/8/34) infected in MDCK cells assessed as reduction in NP protein level at 1 uM in presence of rNTP by Western blot analysis; assay type: functional, organism-based
[43] = Clearance in Sprague-Dawley rat at 3 mg/kg, iv measured up to 24 hrs by LC-MS analysis; assay type: ADME, organism-based; conditions: in vivo
[44] = AUC(0 to t) in Sprague-Dawley rat at 10 mg/kg, po measured up to 24 hrs by LC-MS analysis; assay type: ADME, organism-based; conditions: in vivo
[45] = Half life in Sprague-Dawley rat at 10 mg/kg, po measured up to 24 hrs by LC-MS analysis; assay type: ADME, organism-based; conditions: in vivo
Influenza B virus [46] = assay: Antiviral activity against influenza B virus B/Yamagata/16/88 infected in MDCK cells; assay type: functional, organism-based; conditions: B/Yamagata/16/88, MDCK
[47] = Toxicity in BALB/c mouse assessed as animal death at 1 g/kg, IG administered 3 times per day and measured for 14 days; conditions: in vivo, po, 1000 mg/kg, 336 h, time 14 day
[48] = Cmax in Sprague-Dawley rat at 10 mg/kg, po measured up to 24 hrs by LC-MS analysis; assay type: ADME, organism-based; conditions: in vivo
[49] = Metabolic stability in mouse liver microsomes assessed as hepatic extraction ratio preincubated for 5 mins followed by NADPH addition and measured upto 45 mins by LC-MS analysis; assay type: ADME, Microsome; conditions: time < 50 min
Influenza A virus [50] = assay: Antiviral activity against Influenza A virus H1N1 (A/Puerto Rico/8/34) infected in MDCK cells assessed as reduction in NP protein level at 1 uM treated at 4 hrs post infection by Western blot analysis; assay type: functional, organism-based
[51] = Cytotoxicity against MDCK cells by CCK-8 assay; assay type: toxicity, cell-based, Canis lupus familiaris; conditions: dog
Influenza A virus [52] = assay: Antiviral activity against Influenza A virus H1N1 (A/Puerto Rico/8/34) infected in MDCK cells assessed as reduction in NP protein level at 10 uM in presence of rGTP by Western blot analysis; assay type: functional, organism-based
Influenza A virus [53] = assay: Antiviral activity against Influenza A virus H1N1 (A/Puerto Rico/8/34) infected in MDCK cells assessed as reduction in NP protein level at 10 uM in presence of rATP by Western blot analysis; assay type: functional, organism-based
Influenza A virus [54] = assay: Antiviral activity against Influenza A virus H1N1 (A/Puerto Rico/8/34) infected in MDCK cells assessed as reduction in NP protein level at 10 uM in presence of 125 uM rNTP by Western blot analysis; assay type: functional, organism-based

## CCN(CC)CCOC(=O)c1ccc(N)cc1 [PROCAINE]
[1]
  half-life: 0.0187 h
[2]
  Stability: Unstable
[3]
  Stability: Bld

## CC(C)(C)c1ccc(C(=O)NC(=S)Nc2ccc(NC(=O)c3ccc(C(C)(C)C)cc3)cc2)cc1
[4]
  Tmax: 4 h
[5]
  Tmax: 4.8 min
[6]
  Activity: Non-Toxic
[7]
  selectivity ratio: > 120000
[8]
  half-life: 0.891 h
Influenza A virus [9]
  Activity: Dose-Dependent Effect
Influenza A virus [10]
  Activity: Active
[11]
  Activity: Non-Toxic
Influenza A virus [12]
  Activity: Dose-Dependent Effect
[13]
  Activity: Non-Toxic
[14]
  half-life: 1.04 h
[15]
  CLhep predicted: 1.19 L/h/kg
Influenza A virus [16]
  Activity: 50%
[17]
  bioavailability: 7.38%
[18]
  Activity: Toxic
[1]
  half-life: 3.2 h
[19]
  CLint scaled: 6.15 L/h/kg
[20]
  Cmax: 41.9 µg/mL
Influenza B virus [21]
  EC50: 0.04 µM
[22]
  hepatic extraction ratio at 0.75 h: 64.1%
[23]
  half-life: 1.28 h
[24]
  AUC(0-inf): 5.4 µg·h/mL
[25]
  CLhep predicted: 0.649 L/h/kg
[26]
  Activity: Non-Toxic
[27]
  half-life: 3.69 h
[28]
  remaining at 2 h: 64%
Influenza A virus [29]
  inhibition: Dose-Dependent Effect
Influenza A virus [30]
  Activity: Active
Influenza A virus [31]
  EC50: 0.001 µM
[32]
  AUC(0-t) at 24 h: 21.9 µg·h/mL
Influenza A virus [33]
  Activity: inactive
Influenza A virus [34]
  Activity: inactive
[35]
  CLint scaled: 1.36 L/h/kg
[36]
  hepatic extraction ratio at 0.75 h: 52.3%
[37]
  CLhep predicted: 2.87 L/h/kg
[38]
  CLint scaled: 3.31 L/h/kg
Influenza A virus [39]
  Activity: inactive
[40]
  Activity: Non-Toxic
[41]
  AUC(0-inf): 21.9 µg·h/mL
Influenza A virus [42]
  Activity: inactive
[43]
  clearance: 0.137 L/h/kg
[44]
  AUC(0-t) at 24 h: 5.42 µg·h/mL
[45]
  half-life: 3.26 h
Influenza B virus [46]
  EC50: 0.05 µM
[47]
  Activity: Non-Toxic
[48]
  Cmax: 1.18 µg/mL
[49]
  hepatic extraction ratio at 0.75 h: 53.1%
Influenza A virus [50]
  Activity: Active
[51]
  CC50: > 100 µM

## NC(=O)c1ncn([C@@H]2O[C@H](CO)[C@@H](O)[C@H]2O)n1
Influenza A virus [52]
  Activity: inactive
Influenza A virus [53]
  Activity: inactive
Influenza A virus [54]
  Activity: Active
